Assays:
4C6 T cell clone = assay: Peptide titration activation assay of 4C6 T cell clone, MIP-1β ELISA; format: cell-based, human; conditions: duplicate conditions
Protocol: 4C6 T-cells were rested overnight in R5 media (as for R10 but with 5% FBS) to reduce
spontaneous activation, followed by incubation in the presence of C1R-HLA A*24:02, with peptide mixtures
of defined length and random amino acid sequence (X8-14 in which X is any of the 20 proteogenic L-amino
acids, excluding cysteine) in R5 media overnight at 37°C and 5% CO2. MIP-1β production was measured by
enzyme-linked immunosorbent assay (ELISA, R&D Systems, Bio-Techne, Minneapolis, MN, US) as a proxy
for T cell activation as previously described (22). Peptide mixtures were synthesised at >40% purity
(Pepscan Presto, Lelystad, Netherlands) and stored at -80°C in DMSO at 40 mM. Mixtures were used in
assays at a concentration of 1 mM. Following conformation of the preference of 4C6 T-cells for 9-mer
peptides, nonamer PS-CPL screening was performed using libraries synthesised at >40% purity as
described previously (22, 23, 43). Libraries were stored at -80°C in DMSO at 20 mM. For assays, 6×104
C1R-HLA A*24:02 were pulsed with 100 μM of each CPL library mixture for 2 h at 37°C. Following this,
3×10^4 4C6 T cells were co-incubated with the pulsed C1R-HLA A*24:02 cells overnight at 37°C and 5% CO2.
Assay conditions were performed in duplicate. Supernatants were harvested the following morning and
assayed for the presence of MIP-1β, as above, by ELISA.
universe with bias toward good agonists.

[1] = test system: tetramer-enriched T cell lines from HLA A*24+ healthy donors; assay: Tetramer staining of tetramer-enriched T cell lines from HLA A*24+ healthy donors; format: cell-based, human
Protocol: The 4C6 T-cell clone was rested overnight in R5 media, as above then incubated with antigen presenting
cells, with 3 x104 4C6 T-cells and 6 x10^4 antigen presenting cells per well of a 96U well plate. The cells were
incubated overnight in R5 media at 37°C and 5% CO2, with all conditions performed in triplicate.
Supernatants were harvested and MIP-1β or TNF production measured by enzyme-linked immunosorbent
assay (ELISA, R&D Systems, Bio-Techne, Minneapolis, MN, US). Experiment 1 used C1R cells +/- HLA
A*24:02 +/- IGF2BP2 (irrelevant control), gsiA or fes genes. Experiment 2 used THP-1 and A549 cells: WT
and + HLA A*A24:02 +/- gsiA or fes genes. PHA (10 μg/mL) as a positive control and exogenous Klebsiella
peptides at 10 μM for comparison were also included. MIP-1β or TNF values for 4C6 T-cells or antigen
presenting cells incubated alone were subtracted during analysis.

[2] = Supplementary Figure 5, 60 biased-sampling peptides and index, 4C6 overnight with C1R-HLA A24:02, MIP-1β ELISA

Row | Sequence | EC50 (4C6 T cell clone; [2]) | further results
1 | AHPPLFNVM [9-mer drawn by CPL-biased importance sampling] | > 10 µM | –
2 | ALMRLFSLF [9-mer drawn by CPL-biased importance sampling] | > 10 µM | –
3 | AYAAAAAAL [irrelevant HLA A*24:02 peptide used in control tetramers] | – | % tetramer+ ([1]; CMV […] tetramer-enriched line, donor 572D, single-staining): 0%; % tetramer+ ([1]; CMV […] tetramer-enriched line, donor BB25, single-staining): 0.05%; % tetramer+ ([1]; CMV […] tetramer-enriched line, donor BB31, single-staining): 0.05%; % tetramer+ ([1]; CMV […] tetramer-enriched line, donor BB51, single-staining): 0.1%; % tetramer+ ([1]; CMV […] tetramer-enriched line, donor BB52, single-staining): 0.04%; % tetramer+ ([1]; CMV […] tetramer-enriched line, donor BB57, single-staining): 0.02%; % tetramer+ ([1]; CMV […] tetramer-enriched line, donor BB64, single-staining): 0.3%; % tetramer+ ([1]; Kleb SLPRLFPLL tetramer-enriched line, donor 572D, single-staining): 0%; % tetramer+ ([1]; Kleb SLPRLFPLL tetramer-enriched line, donor BB25, single-staining): 0.03%; % tetramer+ ([1]; Kleb SLPRLFPLL tetramer-enriched line, donor BB31, single-staining): 0.5%; % tetramer+ ([1]; Kleb SLPRLFPLL tetramer-enriched line, donor BB51, single-staining): 0.1%; % tetramer+ ([1]; Kleb SLPRLFPLL tetramer-enriched line, donor BB52, single-staining): 0%; % tetramer+ ([1]; Kleb SLPRLFPLL tetramer-enriched line, donor BB57, single-staining): 0.06%; % tetramer+ ([1]; Kleb SLPRLFPLL tetramer-enriched line, donor BB64, single-staining): 0.4%
4 | DHPPLFPMA [9-mer drawn by CPL-biased importance sampling] | > 10 µM | –
5 | DKPRLVPVI [9-mer drawn by CPL-biased importance sampling] | > 10 µM | –
6 | DLQRLVSVI [9-mer drawn by CPL-biased importance sampling] | > 10 µM | –
7 | DMMPLLPII [9-mer drawn by CPL-biased importance sampling] | > 10 µM | –
8 | DNPRLFGLT [9-mer drawn by CPL-biased importance sampling] | > 10 µM | –
9 | DYQRLVNLL [9-mer drawn by CPL-biased importance sampling] | > 10 µM | –
10 | ELPPLMSVW [9-mer drawn by CPL-biased importance sampling] | > 10 µM | –
11 | EMQPLFGMV [9-mer drawn by CPL-biased importance sampling] | > 10 µM | –
12 | ENMPLMPMI [9-mer drawn by CPL-biased importance sampling] | > 10 µM | –
13 | EWQPLFSIA [9-mer drawn by CPL-biased importance sampling] | > 10 µM | –
14 | EYMPLVGML [9-mer drawn by CPL-biased importance sampling] | > 10 µM | –
15 | EYPPLLNIL [9-mer drawn by CPL-biased importance sampling] | > 10 µM | –
16 | EYPPLVPIL [fungal peptide, Aspergillus niger, Unnamed protein product] | – | EC50 (4C6 T cell clone; Supplementary Figure 6, top 20 fungal database peptides, 4C6 overnight with C1R HLA A*24:02, MIP-1β ELISA): > 10 µM
17 | HYMPLFGVT [9-mer drawn by CPL-biased importance sampling] | > 10 µM | –
18 | HYQPLVPVL [9-mer drawn by CPL-biased importance sampling] | > 10 µM | –
19 | ILMPLMPMT [9-mer drawn by CPL-biased importance sampling] | > 10 µM | –
20 | IWPPLVPVT [9-mer drawn by CPL-biased importance sampling] | > 10 µM | –
21 | IWQPLAGVA [9-mer drawn by CPL-biased importance sampling] | > 10 µM | –
22 | KNLPLVPII [9-mer drawn by CPL-biased importance sampling] | > 10 µM | –
23 | KWLRLMPMM [9-mer drawn by CPL-biased importance sampling] | > 10 µM | –
24 | LLMPLVGLW [9-mer drawn by CPL-biased importance sampling] | > 10 µM | –
25 | LMMPLAPMM [9-mer drawn by CPL-biased importance sampling] | > 10 µM | –

Row | Sequence | EC50 (4C6 T cell clone; [2]) | further results
26 | LYQPLVGMV [9-mer drawn by CPL-biased importance sampling] | > 10 µM | –
27 | NHPRLVGVI [9-mer drawn by CPL-biased importance sampling] | > 10 µM | –
28 | NKLRLVNIM [9-mer drawn by CPL-biased importance sampling] | > 10 µM | –
29 | NLMRLMNLA [9-mer drawn by CPL-biased importance sampling] | > 10 µM | –
30 | NWQPLVSIW [9-mer drawn by CPL-biased importance sampling] | > 10 µM | –
31 | QHPPLASLI [9-mer drawn by CPL-biased importance sampling] | > 10 µM | –
32 | QKLPLLGLL [9-mer drawn by CPL-biased importance sampling] | > 10 µM | –
33 | QKQPLLPII [9-mer drawn by CPL-biased importance sampling] | > 10 µM | –
34 | QKQRLASIL [9-mer drawn by CPL-biased importance sampling] | > 10 µM | –
35 | QMLPLLPLF [9-mer drawn by CPL-biased importance sampling] | > 10 µM | –
36 | QMPPLVNIM [9-mer drawn by CPL-biased importance sampling] | > 10 µM | –
37 | QMQRLVNIV [9-mer drawn by CPL-biased importance sampling] | > 10 µM | –
38 | QWPRLVNVF [9-mer drawn by CPL-biased importance sampling] | > 10 µM | –
39 | QYLRLFNIT [9-mer drawn by CPL-biased importance sampling] | > 10 µM | –
40 | RHMRLFGML [9-mer drawn by CPL-biased importance sampling] | > 10 µM | –
41 | RLLPLVSVI [9-mer drawn by CPL-biased importance sampling] | > 10 µM | –
42 | RLMPLVPVV [9-mer drawn by CPL-biased importance sampling] | > 10 µM | –
43 | RNPPLVGIW [9-mer drawn by CPL-biased importance sampling] | > 10 µM | –
44 | RYPPLVPML [9-mer drawn by CPL-biased importance sampling] | > 10 µM | –
45 | SLLPLLGIL [9-mer drawn by CPL-biased importance sampling] | > 10 µM | –
46 | SMMRLLPVW [9-mer drawn by CPL-biased importance sampling] | > 10 µM | –
47 | SNMRLMPVV [9-mer drawn by CPL-biased importance sampling] | > 10 µM | –
48 | SNPPLMGLM [9-mer drawn by CPL-biased importance sampling] | > 10 µM | –
49 | SWLRLFNMM [9-mer drawn by CPL-biased importance sampling] | > 10 µM | –
50 | SYPPLVGMV [9-mer drawn by CPL-biased importance sampling] | > 10 µM | –
